We go through 13 compounds from paper PMC6358775, “Elucidation of Vasodilation Response and Structure Activity Relationships of N^2,N^4-Disubstituted Quinazoline 2,4-Diamines in a Rat Pulmonary Artery Model” (Molecules, 2019).

SMILES strings stand for the structures. Values after ≈ are worked out from the molar mass of the structure shown. Structures can show the parent of a compound that is named as a salt. Where two headings read alike, the source gives them in different places. Where only a bound is given, the exact number is not on record here.

For data set [1], the system named is Glucose Transporter. Further details: method as in earlier work. The settings on record: ChEMBL substructure search; cited from earlier work.
The nature of data set [2]: physchem. The settings on record: for solubility thermodynamic at 6 h: pH 7.4, aqueous buffer, thermodynamic from solid. Here is the method: The solubility of the compounds under investigation here were assessed in phosphate buffer at pH 7.4 using the equilibrium shake-flask method.
An equilibrium shake-flask technique was used to determine the solubility of samples in PBS at pH 7.4. Approximately 1 mg of sample was placed in a 10 mL glass screw top vial and dissolved in 1 mL of 0.02 M PBS at pH 7.4. The solution was sonicated for 1 h, followed by shaking for 6 h (IKA HS 260). The saturated solution was then filtered using a nylon syringe filter. A standard solution of each sample was prepared by dissolving a weighed amount of the sample in 1 mL of DMSO. The concentration of sample dissolved in the PBS solution was determined by comparing the peak area of the PBS and DMSO standard using an Agilent 1100 series HPLC with a Sunshell C8 column (Chromanik Technologies Inc., Osaka, Japan). A 100 µL injection of the aqueous sample and 5 µL of DMSO solution (pre-diluted 100 fold using DMSO) were used.

Data set [3] deals with PE-induced contraction of endothelium-denuded pulmonary arterial rings. Briefly: Inhibition of phenylephrine (PE)-induced contraction in endothelium-denuded arterial rings. Further details: species or system rat. The settings on record: 10 µM compound, 15 min pre-incubation, E− rings; for inhibition at 10 µM: Rattus norvegicus, PE 0.0001–100 µM, n = 3–5, read-out: % PE-Contraction Inhibition (SEM); for maximal contraction induced by PE attenuated to: remaining contraction. Here is the method: These experiments were undertaken to assess the pharmacological activity of quinazoline analogues against the structurally related α1 receptor blocker (prazosin). In contrast to previous vasorelaxant experiments, this protocol was developed to determine the inhibitory effect of pre-incubated (15 min) inhibitors (10 µM) on the concentration-dependent vasoconstriction induced by cumulative addition of PE (0.0001–100 µM) in endothelium-denuded pulmonary arterial rings. Figure 5 illustrates the real time contractile response shown by the pulmonary arterial ring upon cumulative addition of PE, which evoked a concentration-dependent vasoconstriction, increasing the vessel’s tension.
After anesthesia with thiopental sodium (100 mg/kg, i.p.) (Anesthal®, Jagsonpsal Pharmaceutical Ltd., Haryana, India), rats were euthanized by exsanguination. Lungs were carefully excised, cleaned by the removal of connective tissue, and placed in cold physiological Krebs’ solution composed of (mM): NaCl 122; KCl 5; N-[2-hydroxyethyl] piperazine-N′-[2-ethane-sulfonic acid] (HEPES) 10; KH2PO4 0.5; NaH2PO4 0.5; MgCl2 1; CaCl2 1.8; and glucose 11 adjusted to pH 7.3 using 1 M NaOH. The pulmonary artery was isolated from the lungs and cut into rings approximately 2 mm in length before mounting in the organ bath chambers. Endothelial cells were mechanically removed in some experiments by gentle rubbing of the inner surface with forceps. Pulmonary arterial rings were mounted on intraluminal wires via stainless steel hooks maintaining the resting tension at 1 g and rings were equilibrated for 30 min before obtaining a stable contraction with 10^−5 M phenylephrine (PE). The rings were immersed in 10 mL baths containing physiological Krebs’ solution at 37 °C, which was continuously bubbled with air. Force transducers were connected with intraluminal wires to measure isometric tension via a Mac Lab A/D converter (Chart V5, A.D. Instruments, Castle Hill, NSW, Australia). The functional integrity of the endothelium in the vessels was confirmed by vasorelaxation of ≥70% with sequential addition of 10^−5 M acetylcholine (ACh) to pre-contracted vessels with 10^−5 M PE. Relaxations ≤30% to 10^−5 M ACh in vessels rubbed mechanically were considered successfully endothelium denuded.
The protocol included the assessment of the inhibitory vasoconstriction effect of quinazoline test compounds on endothelium-denuded arterial rings. Briefly, the arterial rings were treated with the α1-receptor blocker (prazosin) or test compound at a concentration of 10 µM for 15 min before construction of the second concentration response curve with cumulative addition of PE (0.0001–100 µM). The same conditions were used to test the effects of the solvent (DMSO 0.2%). The results were obtained in percentages by comparison of the maximum contraction without treatment with the contraction in the presence of the test compound [24, 36, 37].

The test system of data set [4] is α1 adrenergic receptor. The settings on record: α1 adrenergic receptor antagonist; ChEMBL substructure search; cited from earlier work.
Data set [5] concerns endothelium-denuded rat pulmonary arterial rings. Briefly: Vasorelaxation of PE pre-contracted endothelium-denuded (E−) pulmonary arterial rings, organ bath. The settings on record: for IC50: Table S3, endothelium-denuded, read-out: E- Vaso. pIC50 (converted); for EC50: endothelium-denuded (E−) rings pre-contracted with 10^-5 M PE, cumulative 0.0001–30 µM, mean (SEM), n = 6, read-out: Vaso E− EC50 µM (SEM); for Emax: maximal relaxation, endothelium-denuded rings, up to 30 µM, mean ± SEM.

The test system of data set [6] is A549 cells. Description: MTT cytotoxicity assay in A549 cells. The settings on record: Homo sapiens. The class given is cell-based. Here is the method:
A 3-[4,5-dimehyl-2-thiazolyl]-2,5-diphenyl-2H-tetrazoliumbromide (MTT) assay was utilized to assess the concentration-response curves for quinazoline analogues as previously reported. A549 cells (ATCC CCL-185, human alveolar basal epithelial cell line) were used to account for the general cytotoxicity of compounds. Cells were cultured in DMEM medium containing fetal bovine serum (FBS; 10%), penicillin (10 U/mL), and streptomycin (100 U/mL). The temperature was maintained at 37 °C with 5% CO2. Cells were seeded for 16–18 h in DMEM and incubated for 72 h with the test compounds. After incubation, MTT (5 mg/mL in normal saline) was added with DMEM and incubated for 3 h. Careful decantation of the medium and addition of DMSO (50 µL) was done. Absorbance values were recorded at 570 nm after 5 min mechanical shaking of the microplate (Sunrise microplate reader, Tecan).
The activity was presented as the inhibitory concentration required to produce a 50% response (IC50). Prism 6.0 GraphPad Software Inc., (San Diego, CA, USA) was utilized for data fitting. 0.5% DMSO was used as the negative control.

For data set [7], the system named is endothelium-intact rat pulmonary arterial rings. Briefly: Vasorelaxation of PE pre-contracted endothelium-intact (E+) pulmonary arterial rings, organ bath. As to conditions: for Emax / IC50 / EC50: Rattus norvegicus; for IC50: Table S3, endothelium-intact, read-out: E+ Vaso. pIC50 (converted); for EC50: endothelium-intact (E+) rings pre-contracted with 10^-5 M PE, cumulative 0.0001–30 µM, mean (SEM), n = 6, read-out: Vaso E+ EC50 µM (SEM).

Data set [8] deals with Aldehyde dehydrogenase 1A1. Further details: method as in earlier work. The settings on record: ChEMBL substructure search; cited from earlier work.
Data set [9] has as its system DHFR. The settings on record: ChEMBL substructure search; cited from earlier work.
Data set [10] concerns the target PDE-5 (Homo sapiens, UniProt O76074). As to conditions: cited from earlier work.
The mark [11] stands for this setting: A549, MTT, 72 h incubation, read-out: A549 IC50, µM (S.D.).
[12] abbreviates: Table S3, A549, read-out: Cytox. pIC50 (converted).
Where [13] appears, read: maximal relaxation, endothelium-intact rings, up to 30 µM, mean ± SEM.

In the case of `COc1cc2nc(N(C)C3CCN(Cc4ccccc4)CC3)nc(N)c2cc1OC` [CHEMBL527902], the “Activity” value in [1] is 4.087 µM.
For the compound `COc1cc2nc(N3CCN(C(=O)c4ccco4)CC3)nc(N)c2cc1OC` [Prazosin (PZN), Prazosin HCl, reference compound], in data set [2] (6 h, pH 7.4), the “Sol. pH7.4 mg/mL” value was 0.55 mg/mL and the “Sol. pH7.4 (µM)” value was determined as 1.42 µM. This compound also yielded a solubility (thermodynamic) at 6 h in data set [2] of 550 µg/mL. The inhibition at 10 µM in data set [3] was found to be 98%. For the same compound, the “Activity” value in data set [4] was 1 nM.
With `c1csc(CNc2nc(Nc3ccc(N4CCOCC4)cc3)nc3ccccc23)c1` [Compound 8], in [2] (6 h, pH 7.4), the “Log Sol” value is listed as -0.32 and the “Sol. pH7.4 (µM)” value was found to be 0.48 µM. Moreover, the thermodynamic solubility at 6 h in [2] was determined as 200 µg/mL (≈ 479 µM). Besides, in [5], the IC50 is 8.51 µM, the half-maximal effective concentration (EC50) is 8.5 µM and the Emax was found to be 100%. In addition, in [6] (setting [11]), the IC50 was found to be 11.4 µM. Also, the IC50 in [6] (setting [12]) was 11.5 µM. In [3], the inhibition at 10 µM turned out to be 42.4% and the “maximal contraction induced by PE attenuated to” value (shortened to “maximal contraction induced”) was 56.38 ± 7.10%. Further, in [7] (setting [13]), the Emax was determined as 98.8 ± 0.79% and the “E+ Emax (%)” value was determined as 98.88 ± 0.79%. Further, in [7], the IC50 is 0.575 µM and the concentration for a half-maximal effect (EC50) is 0.58 µM.
`COc1cc2nc(N3CCN(C(=O)c4ccco4)CC3)nc(N)c2cc1OC` [PRAZOSIN HYDROCHLORIDE]: the “Activity” value in data set [8] is 25 µM.
In the case of `CCOc1ccc2ccccc2c1-c1cc2nc(N)nc(N)c2cc1C` [CHEMBL1818128], the “Activity” value in data set [9] is 4.5 nM.
Turning to `NS(=O)(=O)c1cccc(Nc2nc(NCc3ccco3)c3ccccc3n2)c1` [Compound 13], the “Log Sol” value in data set [2] (6 h, pH 7.4) is -0.42. Further, the “Sol. pH7.4 (µM)” value in [2] (6 h, pH 7.4) amounted to 0.38 µM. In addition, the thermodynamic solubility at 6 h in [2] came out at 150 µg/mL (≈ 379 µM). The IC50 in data set [5] was 3.02 µM; in [6] (setting [11]), 26.9 µM; in [6] (setting [12]), 26.9 µM; in data set [7] it was 6.61 µM. Further, the figures for the EC50 in [5] and in data set [7] were 3.02 µM and 6.61 µM, respectively. Further, the maximal response (Emax) in data set [5] is 95.6 ± 2.75%; in data set [7] (setting [13]), 95.5 ± 2.17%. In addition, the inhibition at 10 µM in data set [3] worked out at 45.9%. Also, the “maximal contraction induced” value in [3] was 54.07 ± 11.69%.
For `COc1cc2nc(N(C)CCCNC(=O)C3CCCO3)nc(N)c2cc1OC` (centres unmarked) [Alfuzosin], the “Activity” value in data set [4] is on record as 3 nM.
For the compound `Cc1ccccc1Nc1nc(Nc2ccccc2)c2ccccc2n1.Cl` [CHEMBL582356], the “Activity” value in [1] is 4.496 µM.
For the compound `COc1cc(NCc2ccc3nc(N)nc(N)c3c2C)cc(OC)c1OC` [Trimetrexate], the “Activity” value in data set [9] is listed as 3 nM.
Take `O=C(Nc1ccccc1)Nc1ccc(Nc2nc(NCc3cccs3)c3ccccc3n2)cc1` [Compound 7]: the “Log Sol” value in data set [2] (6 h, pH 7.4) was -0.66. In data set [2] (6 h, pH 7.4), the “Sol. pH7.4 (µM)” value is listed as 0.22 µM. The compound further registered a thermodynamic solubility at 6 h in data set [2] of 100 µg/mL (≈ 214 µM). Moreover, the IC50 in [5] was over 30 µM; in data set [6] (setting [11]), 2.91 µM; in [6] (setting [12]), 2.88 µM; in [7], 4.07 µM. Also, the EC50 in data set [5] is over 30 µM; in [7] it was 4.1 µM. Also, the Emax turned out to be 22.3 ± 4.4% in data set [5] and 76 ± 5.73% in data set [7] (setting [13]). The inhibition at 10 µM in data set [3] was found to be 43.6%. Also, the “maximal contraction induced” value in data set [3] turned out to be 57.57 ± 5.99%.
With `COc1cccc2c(NCc3ccccc3)nc(NCCCN3CCCCC3C)nc12` (centres unmarked) [CHEMBL546792], the “Activity” value in data set [1] is 4.102 µM.
With `c1ccc(CNc2nc(Nc3ccc(N4CCOCC4)cc3)nc3ccccc23)cc1` [Compound 2], in data set [2] (6 h, pH 7.4), the “Log Sol” value is listed as -0.22 and the “Sol. pH7.4 (µM)” value was 0.60 µM. Moreover, the solubility (thermodynamic) at 6 h in data set [2] worked out at 250 µg/mL (≈ 608 µM). In [5], the IC50 was 12 µM, the EC50 was 12 µM and the Emax stood at 85.7 ± 6.05%. For the same compound, in data set [6] (setting [11]), the IC50 was 12.1 µM. For the same compound, in data set [6] (setting [12]), the IC50 is 12 µM. In addition, in data set [3], the inhibition at 10 µM was 56.6% and the “maximal contraction induced” value turned out to be 43.38 ± 5.90%. Also, in data set [7] (setting [13]), the Emax came out at 94.7 ± 3.33%. Besides, in data set [7], the IC50 is 5.01 µM and the EC50 turned out to be 4.98 µM.
For the compound `Clc1cnc(Nc2ccccc2)nc1NCc1ccccc1` [Compound 14], in data set [10], the “PDE-5 activity (in words)” value is “borderline PDE-5 inactive”. Moreover, the “Log Sol” value in data set [2] (6 h, pH 7.4) turned out to be 0.51. Besides, in data set [2] (6 h, pH 7.4), the “Sol. pH7.4 (µM)” value was determined as 3.27 µM. For the same compound, the solubility (thermodynamic) at 6 h in [2] stood at 1020 µg/mL (≈ 3280 µM). The IC50 in [5] was 10.7 µM; in data set [6] (setting [11]), over 100 µM; in data set [6] (setting [12]) it was over 100 µM; in data set [7], 4.47 µM. The results for the EC50 in [5] and in data set [7] were 10.7 µM and 4.49 µM, respectively. Further, the Emax came to 54.7 ± 6.12% in [5] and 67.8 ± 5.34% in [7] (setting [13]).
